Where two headings read alike, the source gives them in different places. Values belong to the molecule of their own block, whether it stands above or below them.
How the values were obtained:
human src SH2 domain [1] = biological target: human src SH2 domain (Homo sapiens, UniProt P12931); test: SH2 domain / pY peptide binding assay (ELISA-based, 96 well plate), src SH2
Protocol: (§1) The inhibitory activity of compounds at the different human SH2 domains was determined in vitro using SH2 domains expressed as fusion proteins in E. coli. The SH2 domains used herein were the human forms of the src SH2 domain, Grb2 SH2 domain, lck SH2 domain, fyn SH2 domain, SH-PTP2 SH2 domain, p85 SH2 domain and hcp SH2 domain. The fusion proteins containing the src, lck and hcp SH2 domains were expressed as the general sequence: DET1-DET2-spacer-ek-SH2, where DETI, DET2, spacer, ek and SH2 are as described below. […] Monoclonal antibodies to various epitopes of HIV-1 gp120 (or gp160) are known in the art, see, for example U.S. Patent 5,166,050. One preferred example is monoclonal antibody 178.1 (see, […] et al., J. Immunol., 143:1832-1836 (1989)), which was prepared by immunization of mice with a yeast-expressed HIV-1 gp160 molecule from strain BH10 (Ratner et al., Nature, 313:277-284 (1985)). This tag was used for detection of expression (by Western blot), for purification of the protein (by affinity chromatography), and for configuring assays in which the fusion protein was captured or immobilized using the 178.1 antibody. DET2 is a hexahistidine sequence tag (SEQ ID NO: 2) which binds to nickel-containing resins and was used for purification purposes. Spacer (SEQ ID NO: 3) was utilized to design a BamH1 restriction site at the indicated position of the construct. The term -[…] to a recognition sequence (SEQ ID NO: 4) for the enterokinase protease which provides for the optional removal of the tags from the SH2 domain, thus producing an SH2 domain that contains no extraneous amino acids. SH2 domains which contain no extraneous amino acids are preferable to tagged protein for crystallography studies. SH2 refers to the SH2 domains of different proteins. Cloning, expression and purification of human src SH2 domain containing tags and an enterokinase proteolytic cleavage site (DET1-DET2-spacer-ek-src SH2). A DNA sequence encoding protein ek-src SH2 was PCR amplified from a cDNA clone containing the human src gene (c-src SH2 DNA sequence identical to that described in […]. and Hanafusa, H, 1983 Cell 32:881-890) using the following primers: [formula] The PCR product was digested with BamHI and XbaI, followed by isolation of the digested fragment on an agarose gel. […] In that vector, the BamHI site is located between the coding regions for DET2 and SH2, and the XbaI site is located after the 3' end of the SH2 coding region. The ligation reaction was used to transform E. coli M[…]^+. […] Cells were lysed at neutral pH by sonication in the […] of lysozyme. […] After washing the column with equilibration buffer (Tris buffer pH 8 containing 0.5 M NaCl) and the same buffer containing 15 mM imidazole, the protein was eluted in highly purified form with 25 mM imidazole in equilibration buffer. […] The binding assays for the SH2 domains and pY peptides were performed in an ELISA-based 96 well plate assay. In Millipore 96 well filter plates, hydrophilic Durapore® (pore size 0.65um Cat. No. MADVN6550), was added 2 ul (50% suspension) of Protein-G Sepharose (available from Pharmacia of N.J. Cat. […] The volume was brought to 100 ul with TBS-T (tris buffered saline plus 0.05% tween-20), incubated and shaken at room trmperature for 1 hr. then washed 1x with TBS-T (4°C). 90 ul of TBS-T were then added to each well. […] The assay plates were incubated until equilibrium binding was attained (3 hr at 4°C with shaking). […] The A490 of each ELISA plate was then determined. […]

[2] = test system: osteoclast mediated bone resorption; test: fetal rat long bone (FRLB) assay, 45calcium release; type: cell-based, Sprague Dawley rats; details: inhibition of 45calcium release from fetal rat radii and ulnae, 48 hours culture with compound, n=4
Protocol: 4-[4-(4-Methylbenzoyl)benzoyl]phenylacetaldehyde (Compound 4) was tested for its potency to inhibit osteoclast mediated bone resorption in the fetal rat long bone (FRLB) assay as described in Raisz LG (1965) J Clin Invest 44: 103-116, Stern PH et al., (1979) Skeletal Research: An experimental Approach. New York:Academic Press, 21-59 and Votta BJ et al., (1994) Bone 15:533-538).
To perform the experiment timed-pregnant Sprague Dawley rats (Taconic Farms, Germantown, NY) were injected subcutaneously with 200 µCi of ^45CaCl2 on day 18 of gestation, housed overnight, then anesthetized with Innovar-Vet (Pittman-Moore, Mundelein, IL) and sacrificed by cervical dislocation. Fetuses were removed aseptically and radii and ulnae were dissected free of surrounding soft tissue and cartilaginous ends. The bones were cultured 18-24 hours in BGJb medium (Sigma) containing 1 mg/ml bovine serum albumin, then transferred to fresh medium and cultured for an additional 48 hours in the absence or presence of Compound 4. ^45Calcium released into the medium and total calcium in the bones were measured by liquid scintillation spectrometry. Data were expressed as the % ^45calcium released from treated bones as compared to corresponding control bones. Statistical differences were assessed by employing a one-way analysis of variance for non-paired samples. Data are presented as mean ± s.e.m., n=4. […]

human src SH2 domain [3] = test: SH2 domain / pY peptide binding assay (ELISA-based, 96 well plate), src SH2; details: selectivity for src SH2 versus the other SH2 domains of Tables I and II
Protocol: as §1

human src SH2 domain (Homo sapiens, UniProt P12931), sequence (P12931 151-248): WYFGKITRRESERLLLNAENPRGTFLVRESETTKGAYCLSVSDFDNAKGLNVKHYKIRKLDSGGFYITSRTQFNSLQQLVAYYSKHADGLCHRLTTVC

SMILES: N[C@@H](Cc1cc(Br)c(Oc2ccc(O)c(Cc3ccc(O)nn3)c2)c(Br)c1)C(=O)O [Compound 2, L-3,5-Dibromo-3'-(6-oxo-3(1H)-pyridazinylmethyl)-thyronine]
IC50 (human src SH2 domain [1]; read-out: Src (IC50); cloned human SH2 domain fusion protein; 0.1 uM biotinylated pY peptide; Table I): > 300 µM | Ki (human src SH2 domain [1]; read-out: Src (Ki); Ki calculated from IC50 by the expanded equation; Table II): > 1000 µM

IC50 [2]: 19 µM
SMILES: Cc1ccc(C(=O)c2ccc(C(=O)c3ccc(CC=O)cc3)cc2)cc1 [Compound 4, 4-[4-(4-Methylbenzoyl)benzoyl]phenylacetaldehyde]

Ki (human src SH2 domain [1]; Ki calculated from IC50 by the expanded equation; Table II; read-out: Src (Ki)): 20 µM | IC50 (human src SH2 domain [1]; cloned human SH2 domain fusion protein; 0.1 uM biotinylated pY peptide; Table I; read-out: Src (IC50)): 7.4 µM | binding affinity/inhibitory concentration at the src SH2 domain than at other SH2 domains (human src SH2 domain [3]): greater than fifty-fold higher
SMILES: CCCCCCNC(=O)[C@H]1CC[C@H](CNC(=O)c2ccc([N+](=O)[O-])cc2)CC1 [Compound 7, 4-nitro-benzamido-trans-4-methyl-cyclohexyl-N-hexyl carboxamide]

Reference: EP0727211A1, “Use of src SH2 specific compounds to treat a bone resorption disease” (SMITHKLINE BEECHAM CORPORATION, priority 1995, dated 1996)
